Molecular target: T1, human liver glycogen phosphorylase a (HLGPa) (Homo sapiens, UniProt P06737)
T1 construct: creating a full-length cDNA fused at the 5′ end to codons for methionine-glycine-alanine-histidine; 6xHis tag (leader Met-Gly-Ala-His6-Gly-Gly) (N); made in house; host or cells: E. coli (bacterial expression plasmid pTXK1007LTev)
T1 sequence (P06737 2-847 limits assumed): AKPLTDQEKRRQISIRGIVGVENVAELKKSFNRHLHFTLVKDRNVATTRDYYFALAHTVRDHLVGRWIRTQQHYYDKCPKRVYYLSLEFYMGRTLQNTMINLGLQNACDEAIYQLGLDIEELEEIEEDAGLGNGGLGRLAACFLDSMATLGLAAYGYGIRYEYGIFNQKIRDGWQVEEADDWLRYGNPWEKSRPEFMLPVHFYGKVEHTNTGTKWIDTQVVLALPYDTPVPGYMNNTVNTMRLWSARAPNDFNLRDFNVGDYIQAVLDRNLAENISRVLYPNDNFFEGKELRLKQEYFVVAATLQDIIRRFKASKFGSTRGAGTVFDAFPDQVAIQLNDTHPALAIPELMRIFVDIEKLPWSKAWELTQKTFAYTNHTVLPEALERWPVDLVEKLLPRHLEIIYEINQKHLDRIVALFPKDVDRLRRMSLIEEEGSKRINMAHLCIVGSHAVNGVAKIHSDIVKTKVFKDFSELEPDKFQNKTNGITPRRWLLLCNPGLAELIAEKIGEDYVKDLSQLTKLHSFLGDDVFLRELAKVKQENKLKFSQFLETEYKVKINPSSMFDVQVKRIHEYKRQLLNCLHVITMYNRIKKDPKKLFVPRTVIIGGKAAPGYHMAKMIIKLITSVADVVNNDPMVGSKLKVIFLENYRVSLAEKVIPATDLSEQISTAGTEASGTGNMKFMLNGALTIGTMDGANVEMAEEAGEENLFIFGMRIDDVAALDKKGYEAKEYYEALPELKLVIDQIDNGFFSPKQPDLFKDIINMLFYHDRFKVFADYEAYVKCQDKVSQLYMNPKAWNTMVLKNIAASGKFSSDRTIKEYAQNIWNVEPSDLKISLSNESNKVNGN
Experiment: Human liver glycogen phosphorylase a enzymatic activity assay (coupled, fluorescent resorufin readout, with and without 10 mM glucose)
Type: biochemical

[1] = human liver glycogen phosphorylase a enzymatic activity assay
[2] = human liver glycogen phosphorylase a, table does not say whether with or without 10 mM glucose

Compound	IC50 [1]	IC50 [2]
CCc1cccc(C)c1NC(=O)Nc1cc2ccccc2cc1C(=O)N[C@H](C(=O)O)C1CCCCC1 [Example 159, (2S)-cyclohexyl{[3-({[(2-ethyl-6-methylphenyl)amino]carbonyl}amino)-2-naphthoyl]amino}ethanoic acid]	58 nM	
O=C(Nc1cc(Cl)c(Cl)cc1C(=O)N[C@H](C(=O)O)C1CCCCC1)Nc1c(Cl)cccc1Cl [Example 177, (2S)-Cyclohexyl({[4,5-dichloro-2-({[(2,6-dichlorophenyl)amino]-carbonyl}amino)phenyl]carbonyl}amino)ethanoic acid]	100 nM	
C[C@](NC(=O)c1cc2ccccc2cc1NC(=O)Nc1c(Cl)cc(OC(F)(F)F)cc1Cl)(C(=O)O)C1CCCCC1 [Example 465, 2-cyclohexyl-N-[(3-{[({2,6-dichloro-4-[(trifluoromethyl)oxy]phenyl}amino)carbonyl]amino}-2-naphthalenyl)carbonyl]-L-alanine]	6 nM	
O=C(O)C[C@H](NC(=O)c1cc2ccccc2cc1NC(=O)Nc1c(F)cccc1F)C(=O)O [Example 149, N-{[3-({[(2,6-difluorophenyl)amino]carbonyl}amino)-2-naphthalenyl]carbonyl}-L-aspartic acid]	5020 nM	
CSCC[C@H](NC(=O)c1cc2ccccc2cc1NC(=O)Nc1ccccc1C)C(=O)O [Example 43, N-[3-({[(2-methylphenyl)amino]carbonyl}amino)-2-naphthoyl]-L-methionine]	18900 nM	
Cc1cccc(C)c1NC(=O)Nc1sc2c(c1C(=O)N[C@H](C(=O)O)C1CCCCC1)CCCC2 [Example 138, (2S)-cyclohexyl({[2-({[(2,6-dimethylphenyl)amino]carbonyl}amino)-4,5,6,7-tetrahydro-1-benzothien-3-yl]carbonyl}amino)acetic acid]	5560 nM	
COc1ccc(-c2ccc(C(=O)N[C@H](C(=O)O)C3CCCC3)c(NC(=O)Nc3c(C)cc(C)cc3C)c2)cc1 [Example 210, (2S)-Cyclopentyl({[4′-(methyloxy)-3-({[(2,4,6-trimethylphenyl)amino]carbonyl}amino)-4-biphenylyl]carbonyl}amino)ethanoic acid]		14 nM
CCOC(=O)C[C@H](NC(=O)c1cc2ccccc2cc1NC(=O)Nc1c(C)cc(C)cc1C)C(=O)O [Example 363, (2S)-4-(ethyloxy)-4-oxo-2-({[3-({[(2,4,6-trimethylphenyl)amino]carbonyl}amino)-2-naphthalenyl]carbonyl}amino)butanoic acid]		360 nM
Cc1cccc(C(C)C)c1NC(=O)Nc1cc2ccccc2cc1C(=O)N[C@@H](C(=O)O)C1CCCCC1 [Example 109, (2R)-cyclohexyl{[3-({[(2-isopropyl-6-methylphenyl)amino]carbonyl}amino)-2-naphthoyl]amino}acetic acid]	19800 nM	
COc1ccc(-c2ccc(C(=O)N[C@H](C(=O)O)C3CCCCC3)c(NC(=O)Nc3c(C)cc(C)cc3C)c2)cc1 [Example 193, (2S)-Cyclohexyl({[4′-(methyloxy)-3-({[(2,4,6-trimethylphenyl)amino]carbonyl}amino)-4-biphenylyl]carbonyl}amino)ethanoic acid]	7 nM	
O=C(Nc1sc2c(c1C(=O)N[C@H](C(=O)O)C1CCCCC1)CCCC2)Nc1c(Cl)cccc1Cl [Example 140, (2S)-cyclohexyl({[2-({[(2,6-dichlorophenyl)amino]carbonyl}amino)-4,5,6,7-tetrahydro-1-benzothien-3-yl]carbonyl}amino)acetic acid]	5500 nM	
COc1ccc(-c2cc(NC(=O)Nc3c(C)cc(C)cc3C)c(C(=O)NC3(C(=O)O)CCCCC3)s2)cc1 [Example 452, 1-({[5-[4-(methyloxy)phenyl]-3-({[(2,4,6-trimethylphenyl)amino]carbonyl}amino)-2-thienyl]carbonyl}amino)cyclohexanecarboxylic acid]	3 nM	
O=C(Nc1cc2ccccc2cc1C(=O)NC1(C(=O)O)CCCC1)Nc1c(Cl)cc(Cl)cc1Cl [Example 279, 1-({[3-({[(2,4,6-Trichlorophenyl)amino]carbonyl}amino)-2-naphthalenyl]carbonyl}amino)cyclopentanecarboxylic acid]		3000 nM
Cc1cc(C)c(NC(=O)Nc2cc3ccccc3cc2C(=O)NC(CCC(C)CC(C)(C)C)C(=O)O)c(C)c1 (stereo not drawn) [Example 264, 5,7,7-trimethyl-2-({[3-({[(2,4,6-trimethylphenyl)amino]carbonyl}amino)-2-naphthalenyl]carbonyl}amino)octanoic acid]		120 nM
Cc1cc(C)c(NC(=O)Nc2cc(-c3ccccc3)ccc2C(=O)N[C@H](C(=O)O)C2CCCCC2)c(C)c1 [Example 182, (2S)-Cyclohexyl({[3-({[(2,4,6-trimethylphenyl)amino]carbonyl}-amino)-4-biphenylyl]carbonyl}amino)ethanoic acid]	17 nM	

Source: patent publication US20070249670A1, “Glycogen Phosphorylase Inhibitor Compounds and Pharmaceutical Compositions Thereof” (SMITHKLINE BEECHAM CORPORATION, priority 2004, published 2007)
